Measured values published in patent publication US9233964B2, “Sulfamide piperazine derivatives as protein tyrosine kinase inhibitors and pharmaceutical use therof” (LEO PHARMA A/S, priority 2011, dated 2016).

Experiments:
Assay type in all cases: biochemical
JAK1 = target: T1, JAK1 (Homo sapiens, UniProt P23458); test: JAK kinase assay (HTRF, phosphorylation of synthetic peptide), JAK1; settings: catalytic domain, ATP at Km (7 μM); read-out: JAK1 kinase inhibitory activity (EC50)
T1 construct: JAK1 (aa 850-1154) and TYK2 (aa 871-1187) are expressed with an N-terminally fused GST-tag; GST (N); purchased Carna Biosciences, Inc; host or cells: baculovirus expression system
Method in brief: (§1)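 Catalytic-domain human JAK1 (GST-tagged, aa 850-1154) or His-tagged JAK2, baculovirus-expressed, phosphorylated 1 µM biotinylated TK peptide at Km ATP (JAK1 7 µM, 10 mM MgCl2, 50 nM SEB; JAK2 4 µM, 5 mM MgCl2) in pH 7.0 Hepes, 20-30 min RT. EDTA stop; overnight streptavidin-XL665/cryptate HTRF read.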

JAK2 = target: T2, JAK2 (Homo sapiens, UniProt O60674); test: JAK kinase assay (HTRF, phosphorylation of synthetic peptide), JAK2; settings: catalytic domain, ATP at Km (4 μM); read-out: JAK2 kinase inhibitory activity (EC50)
T2 construct: All four purified enzymes contain only the catalytic domain; His (N); purchased Carna Biosciences, Inc; host or cells: baculovirus expression system
Method in brief: as §1

JAK3 = target: T3, JAK3 (Homo sapiens, UniProt P52333); test: JAK kinase assay (HTRF, phosphorylation of synthetic peptide), JAK3; settings: catalytic domain, ATP at Km (2 μM); read-out: JAK3 kinase inhibitory activity (EC50)
T3 construct: All four purified enzymes contain only the catalytic domain; His (N); purchased Carna Biosciences, Inc; host or cells: baculovirus expression system

TYK2 = target: T4, TYK2 (Homo sapiens, UniProt P29597); test: JAK kinase assay (HTRF, phosphorylation of synthetic peptide), TYK2; settings: catalytic domain, ATP at Km (13 μM); read-out: TYK2 kinase inhibitory activity (EC50)
T4 construct: JAK1 (aa 850-1154) and TYK2 (aa 871-1187) are expressed with an N-terminally fused GST-tag; GST (N); purchased Carna Biosciences, Inc; host or cells: baculovirus expression system
T4 sequence (P29597 871-1187): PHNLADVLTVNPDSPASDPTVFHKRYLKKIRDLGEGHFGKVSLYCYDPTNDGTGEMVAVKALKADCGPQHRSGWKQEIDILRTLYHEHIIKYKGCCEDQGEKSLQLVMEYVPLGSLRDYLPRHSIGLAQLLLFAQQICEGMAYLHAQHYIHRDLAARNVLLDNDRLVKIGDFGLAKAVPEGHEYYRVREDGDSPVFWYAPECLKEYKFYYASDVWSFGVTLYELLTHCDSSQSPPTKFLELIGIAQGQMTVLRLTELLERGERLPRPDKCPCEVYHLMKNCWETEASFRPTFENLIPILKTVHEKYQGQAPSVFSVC
Method in brief: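 1 µM biotinylated TK peptide at Km ATP in pH 7.0 Hepes, 20-30 min RT. EDTA stop; overnight streptavidin-XL665/cryptate HTRF read.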

T2 sequence (O60674 849-1124 limits assumed): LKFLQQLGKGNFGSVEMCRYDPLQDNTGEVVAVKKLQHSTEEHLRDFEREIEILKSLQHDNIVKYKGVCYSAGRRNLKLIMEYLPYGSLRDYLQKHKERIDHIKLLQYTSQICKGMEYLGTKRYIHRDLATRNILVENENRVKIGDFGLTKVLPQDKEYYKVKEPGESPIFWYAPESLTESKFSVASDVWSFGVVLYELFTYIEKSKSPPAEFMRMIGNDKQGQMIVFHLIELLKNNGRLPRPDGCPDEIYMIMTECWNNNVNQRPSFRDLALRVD
T1 sequence (P23458 850-1154): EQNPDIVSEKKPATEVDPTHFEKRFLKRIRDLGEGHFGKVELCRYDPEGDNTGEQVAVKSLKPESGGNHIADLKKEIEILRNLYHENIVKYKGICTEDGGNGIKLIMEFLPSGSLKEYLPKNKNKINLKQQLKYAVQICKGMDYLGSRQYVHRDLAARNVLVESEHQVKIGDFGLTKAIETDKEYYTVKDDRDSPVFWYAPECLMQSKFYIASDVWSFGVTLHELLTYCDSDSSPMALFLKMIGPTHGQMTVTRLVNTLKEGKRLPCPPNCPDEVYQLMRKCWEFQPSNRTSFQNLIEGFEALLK
T3 sequence (P52333 822-1111 limits assumed): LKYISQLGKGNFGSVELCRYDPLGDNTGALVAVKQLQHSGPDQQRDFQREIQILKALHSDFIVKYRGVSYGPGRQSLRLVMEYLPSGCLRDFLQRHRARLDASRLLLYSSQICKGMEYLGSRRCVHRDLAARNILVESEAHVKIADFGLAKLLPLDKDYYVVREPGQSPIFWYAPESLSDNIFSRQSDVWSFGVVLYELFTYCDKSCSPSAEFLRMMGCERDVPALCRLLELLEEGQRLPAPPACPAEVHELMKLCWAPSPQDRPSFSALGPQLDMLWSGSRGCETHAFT

O=S1(=O)CCC(CN(CCO)S(=O)(=O)N2CCN(c3ncnc4[nH]ccc34)CC23CC3)C1 (stereo not drawn) [Example 167, N-[(1,1-dioxothiolan-3-yl)methyl]-N-(2-hydroxyethyl)-5-(7H-pyrrolo[2,3-d]pyrimidin-4-yl)-5,8-diazaspiro[2.5]octane-8-sulfonamide]
EC50 (JAK1): < 0.1 µM
EC50 (JAK2): < 0.1 µM
EC50 (JAK3): < 0.1 µM
EC50 (TYK2): 0.1 to 0.5 µM

CN(C(=O)C1CCS(=O)(=O)C1)S(=O)(=O)N1CCN(c2ncnc3[nH]ccc23)CC12CC2 (stereo not drawn) [Example 135, N-methyl-1,1-dioxo-N-[[5-(7H-pyrrolo[2,3-d]pyrimidin-4-yl)-5,8-diazaspiro[2.5]octan-8-yl]sulfonyl]thiolane-3-carboxamide]
EC50 (JAK1): < 0.1 µM
EC50 (JAK2): < 0.1 µM
EC50 (JAK3): < 0.1 µM
EC50 (TYK2): 0.1 to 0.5 µM

N#CCCCN(CCO)S(=O)(=O)N1CCN(c2ncnc3[nH]ccc23)CC12CC2 [Example 110, N-(3-cyanopropyl)-N-(2-hydroxyethyl)-5-(7H-pyrrolo[2,3-d]pyrimidin-4-yl)-5,8-diazaspiro[2.5]octane-8-sulfonamide]
EC50 (JAK1): < 0.1 µM
EC50 (JAK2): < 0.1 µM
EC50 (JAK3): < 0.1 µM
EC50 (TYK2): 0.1 to 0.5 µM

CN(CCc1cccc(F)c1)S(=O)(=O)N1CCN(c2ncnc3[nH]ccc23)CC12CC2 [Example 17, 7-(7H-Pyrrolo[2,3-d]pyrimidin-4-yl)-4,7-diaza-spiro[2.5]octane-4-sulfonic acid [2-(3-fluoro-phenyl)-ethyl]-methyl-amide]
EC50 (JAK1): < 0.1 µM
EC50 (JAK2): < 0.1 µM
EC50 (JAK3): < 0.1 µM
EC50 (TYK2): < 0.1 µM

CN(C1CN(S(C)(=O)=O)C1)S(=O)(=O)N1CCN(c2ncnc3[nH]ccc23)CC12CC2 [Example 180, N-methyl-N-(1-methylsulfonylazetidin-3-yl)-5-(7H-pyrrolo[2,3-d]pyrimidin-4-yl)-5,8-diazaspiro[2.5]octane-8-sulfonamide]
EC50 (JAK1): < 0.1 µM
EC50 (JAK2): < 0.1 µM
EC50 (JAK3): < 0.1 µM
EC50 (TYK2): < 0.1 µM

O=C(CN(CCc1ccccc1)S(=O)(=O)N1CCN(c2ncnc3[nH]ccc23)CC12CC2)NCc1ccccc1 [Example 49, N-Benzyl-2-{phenethyl-[7-(7H-pyrrolo[2,3-d]pyrimidin-4-yl)-4,7-diaza-spiro[2.5]octane-4-sulfonyl]-amino}-acetamide]
EC50 (JAK1): < 0.1 µM
EC50 (JAK2): < 0.1 µM
EC50 (JAK3): 0.1 to 0.5 µM
EC50 (TYK2): > 0.5 µM

CN(CC1CCCC1)S(=O)(=O)N1CCN(c2ncnc3[nH]ccc23)CC12CC2 [Example 73, N-(cyclopentylmethyl)-N-methyl-5-(7H-pyrrolo[2,3-d]pyrimidin-4-yl)-5,8-diazaspiro[2.5]octane-8-sulfonamide]
EC50 (JAK1): < 0.1 µM
EC50 (JAK2): < 0.1 µM
EC50 (JAK3): < 0.1 µM
EC50 (TYK2): < 0.1 µM

CN(CCCc1ccccc1)S(=O)(=O)N1CCN(c2ncnc3[nH]ccc23)CC12CC2 [Example 10, 7-(7H-Pyrrolo[2,3-d]pyrimidin-4-yl)-4,7-diaza-spiro[2.5]octane-4-sulfonic acid methyl-(3-phenyl-propyl)-amide]
EC50 (JAK1): < 0.1 µM
EC50 (JAK2): < 0.1 µM
EC50 (JAK3): 0.1 to 0.5 µM
EC50 (TYK2): > 0.5 µM

O=S(=O)(NCCc1ccccc1)N1CCN(c2ncnc3[nH]ccc23)CC12CC2 [Int 5]
EC50 (JAK1): < 0.1 µM
EC50 (JAK2): < 0.1 µM
EC50 (JAK3): 0.1 to 0.5 µM
EC50 (TYK2): > 0.5 µM

O=S(=O)(N(CC1CCC(F)(F)CC1)CC1CCC(F)(F)CC1)N1CCN(c2ncnc3[nH]ccc23)CC12CC2 [Example 150, N,N-bis[(4,4-difluorocyclohexyl)methyl]-5-(7H-pyrrolo[2,3-d]pyrimidin-4-yl)-5,8-diazaspiro[2.5]octane-8-sulfonamide]
EC50 (JAK1): 0.1 to 0.5 µM
EC50 (JAK2): < 0.1 µM
EC50 (JAK3): 0.1 to 0.5 µM
EC50 (TYK2): > 0.5 µM

N#CCN(CC1CCS(=O)(=O)C1)S(=O)(=O)N1CCN(c2ncnc3[nH]ccc23)CC12CC2 (stereo not drawn) [Example 166, N-(cyanomethyl)-N-[(1,1-dioxothiolan-3-yl)methyl]-5-(7H-pyrrolo[2,3-d]pyrimidin-4-yl)-5,8-diazaspiro[2.5]octane-8-sulfonamide]
EC50 (JAK1): < 0.1 µM
EC50 (JAK2): < 0.1 µM
EC50 (JAK3): < 0.1 µM
EC50 (TYK2): < 0.1 µM

O=S(=O)(N(CCO)CCc1ccccc1)N1CCN(c2ncnc3[nH]ccc23)CC12CC2 [Example 25, 7-(7H-Pyrrolo[2,3-d]pyrimidin-4-yl)-4,7-diaza-spiro[2.5]octane-4-sulfonic acid (2-hydroxy-ethyl)-phenethyl-amide]
EC50 (JAK1): < 0.1 µM
EC50 (JAK2): < 0.1 µM
EC50 (JAK3): < 0.1 µM
EC50 (TYK2): < 0.1 µM

CN(C(=O)C1CCCS(=O)(=O)C1)S(=O)(=O)N1CCN(c2ncnc3[nH]ccc23)CC12CC2 (stereo not drawn) [Example 140, N-methyl-1,1-dioxo-N-[[5-(7H-pyrrolo[2,3-d]pyrimidin-4-yl)-5,8-diazaspiro[2.5]octan-8-yl]sulfonyl]thiane-3-carboxamide]
EC50 (JAK1): < 0.1 µM
EC50 (JAK2): < 0.1 µM
EC50 (JAK3): 0.1 to 0.5 µM
EC50 (TYK2): > 0.5 µM

CN(C1CC1)S(=O)(=O)N1CCN(c2ncnc3[nH]ccc23)CC12CC2 [Example 141, N-cyclopropyl-N-methyl-5-(7H-pyrrolo[2,3-d]pyrimidin-4-yl)-5,8-diazaspiro[2.5]octane-8-sulfonamide]
EC50 (JAK1): < 0.1 µM
EC50 (JAK2): < 0.1 µM
EC50 (JAK3): 0.1 to 0.5 µM
EC50 (TYK2): 0.1 to 0.5 µM

O=S1(=O)CCC(CNS(=O)(=O)N2CCN(c3ncnc4[nH]ccc34)CC23CC3)C1 (stereo not drawn) [Int 37]
EC50 (JAK1): < 0.1 µM
EC50 (JAK2): < 0.1 µM
EC50 (JAK3): < 0.1 µM
EC50 (TYK2): > 0.5 µM

N#CCCCN(CCCC#N)S(=O)(=O)N1CCN(c2ncnc3[nH]ccc23)CC12CC2 [Example 56, 7-(7H-Pyrrolo[2,3-d]pyrimidin-4-yl)-4,7-diaza-spiro[2.5]octane-4-sulfonic acid bis-(3-cyano-propyl)-amide]
EC50 (JAK1): < 0.1 µM
EC50 (JAK2): < 0.1 µM
EC50 (JAK3): < 0.1 µM
EC50 (TYK2): 0.1 to 0.5 µM

CN(CC1CC1)S(=O)(=O)N1CCN(c2ncnc3[nH]ccc23)CC12CC2 [Example 59, N-(cyclopropylmethyl)-N-methyl-5-(7H-pyrrolo[2,3-d]pyrimidin-4-yl)-5,8-diazaspiro[2.5]octane-8-sulfonamide]
EC50 (JAK1): < 0.1 µM
EC50 (JAK2): < 0.1 µM
EC50 (JAK3): < 0.1 µM
EC50 (TYK2): < 0.1 µM

CN(CCOc1cccc(C#N)c1)S(=O)(=O)N1CCN(c2ncnc3[nH]ccc23)CC12CC2 [Example 71, N-[2-(3-cyanophenoxy)ethyl]-N-methyl-5-(7H-pyrrolo[2,3-d]pyrimidin-4-yl)-5,8-diazaspiro[2.5]octane-8-sulfonamide]
EC50 (JAK1): < 0.1 µM
EC50 (JAK2): < 0.1 µM
EC50 (JAK3): 0.1 to 0.5 µM
EC50 (TYK2): > 0.5 µM

N#CCCCNS(=O)(=O)N1CCN(c2ncnc3[nH]ccc23)CC12CC2 [Example 55, 7-(7H-Pyrrolo[2,3-d]pyrimidin-4-yl)-4,7-diaza-spiro[2.5]octane-4-sulfonic acid (3-cyano-propyl)-amide]
EC50 (JAK1): < 0.1 µM
EC50 (JAK2): < 0.1 µM
EC50 (JAK3): < 0.1 µM
EC50 (TYK2): 0.1 to 0.5 µM

CN(C1CCCC1)S(=O)(=O)N1CCN(c2ncnc3[nH]ccc23)CC12CC2 [Example 61, N-cyclopentyl-N-methyl-5-(7H-pyrrolo[2,3-d]pyrimidin-4-yl)-5,8-diazaspiro[2.5]octane-8-sulfonamide]
EC50 (JAK1): < 0.1 µM
EC50 (JAK2): < 0.1 µM
EC50 (JAK3): < 0.1 µM
EC50 (TYK2): 0.1 to 0.5 µM

COC(=O)CN(C)S(=O)(=O)N1CCN(c2ncnc3[nH]ccc23)CC12CC2 [Example 34, {Methyl-[7-(7H-pyrrolo[2,3-d]pyrimidin-4-yl)-4,7-diaza-spiro[2.5]octane-4-sulfonyl]-amino}-acetic acid methyl ester]
EC50 (JAK1): < 0.1 µM
EC50 (JAK2): < 0.1 µM
EC50 (JAK3): < 0.1 µM
EC50 (TYK2): 0.1 to 0.5 µM

CN(CCO)S(=O)(=O)N1CCN(c2ncnc3[nH]ccc23)CC12CC2 [Example 109, N-(2-hydroxyethyl)-N-methyl-5-(7H-pyrrolo[2,3-d]pyrimidin-4-yl)-5,8-diazaspiro[2.5]octane-8-sulfonamide]
EC50 (JAK1): < 0.1 µM
EC50 (JAK2): < 0.1 µM
EC50 (JAK3): 0.1 to 0.5 µM
EC50 (TYK2): 0.1 to 0.5 µM

CN(C)S(=O)(=O)N1CCN(c2ncnc3[nH]ccc23)CC12CC2 [Example 45, 7-(7H-Pyrrolo[2,3-d]pyrimidin-4-yl)-4,7-diaza-spiro[2.5]octane-4-sulfonic acid dimethylamide]
EC50 (JAK1): < 0.1 µM
EC50 (JAK2): < 0.1 µM
EC50 (JAK3): < 0.1 µM
EC50 (TYK2): 0.1 to 0.5 µM

CN(CC1CCCCC1)S(=O)(=O)N1CCN(c2ncnc3[nH]ccc23)CC12CC2 [Example 15, 7-(7H-Pyrrolo[2,3-d]pyrimidin-4-yl)-4,7-diaza-spiro[2.5]octane-4-sulfonic acid cyclohexylmethyl-methyl-amide]
EC50 (JAK1): < 0.1 µM
EC50 (JAK2): < 0.1 µM
EC50 (JAK3): < 0.1 µM
EC50 (TYK2): 0.1 to 0.5 µM
